Data published in ChEMBL document CHEMBL5230096, “A comprehensive insight on the recent development of Cyclic Dependent Kinase inhibitors as anticancer agents” (Eur J Med Chem, 2020).
Blank lines part the entries; values can stand above or below the molecule they belong to.

Tests used:
[1] = biological target: Protein cereblon/Cyclin-dependent kinase 6 (Homo sapiens, UniProt Q00534+Q96SW2); assay: Protac activity at CRBN/CDK6 in human MDA-MB-231 cells assessed as CDK6 degradation incubated for 18 hrs by Western blot analysis; assay type: cell-based
[2] = biological target: Protein cereblon/Cyclin-dependent kinase 4 (Homo sapiens, UniProt P11802+Q96SW2); assay: Protac activity at CRBN/CDK4 in human MDA-MB-231 cells assessed as CDK4 degradation incubated for 18 hrs by Western blot analysis; assay type: cell-based
[3] = Cytotoxicity against human L02 cells assessed cell growth inhibition incubated for 2 days by MTT assay; assay type: toxicity, cell-based
[4] = Cytotoxicity against human U87 cells assessed cell growth inhibition incubated for 2 days by MTT assay; assay type: functional, cell-based, U-87MG ATCC; conditions: U-87 MG, 48 h
[5] = tested on: NCI-H522; assay: Cytotoxicity against human NCI-H522 cells assessed cell growth inhibition incubated for 2 days by MTT assay; assay type: functional, cell-based; conditions: NCI-H522, 48 h
[6] = biological target: Cyclin-dependent kinase 2 (Homo sapiens, UniProt P24941); assay: Inhibition of CDK2 (unknown origin) incubated for 10 min using histone H1 as substrate in presence of gamma32P-ATP by radioactive assay
[7] = biological target: Cyclin-dependent kinase 9 (Homo sapiens, UniProt P50750); assay: Inhibition of CDK9 (unknown origin) using TMB as substrate by spectrophotometric analysis
[8] = tested on: HOS; assay: Cytotoxicity against human HOS cells assessed as reduction in cell growth incubated for 72 hrs by Calcein AM assay; assay type: functional, cell-based
[9] = tested on: RPMI-8226; assay: Cytotoxicity against human RPMI-8226 cells assessed as reduction in cell growth incubated for 72 hrs by Calcein AM assay; assay type: functional, cell-based; conditions: RPMI-8226, 72 h
[10] = tested on: HCT-116; assay: Cytotoxicity against human HCT-116 cells assessed as reduction in cell growth incubated for 72 hrs by Calcein AM assay; assay type: functional, cell-based; conditions: HCT-116, 72 h
[11] = tested on: K562; assay: Cytotoxicity against human K562 cells assessed as reduction in cell growth incubated for 72 hrs by Calcein AM assay; assay type: functional, cell-based; conditions: K562, 72 h
[12] = tested on: HeLa; assay: Cytotoxicity against human HeLa cells assessed as reduction in cell growth incubated for 72 hrs by Calcein AM assay; assay type: functional, cell-based
[13] = tested on: HT-29; assay: Cytotoxicity against human HT-29 cells assessed as reduction in cell growth incubated for 72 hrs by Calcein AM assay; assay type: functional, cell-based; conditions: HT-29, 72 h
[14] = tested on: CCRF-CEM; assay: Cytotoxicity against human CEM cells assessed as reduction in cell growth incubated for 72 hrs by Calcein AM assay; assay type: functional, cell-based
[15] = tested on: U-266; assay: Cytotoxicity against human U-266 cells assessed as reduction in cell growth incubated for 72 hrs by Calcein AM assay; assay type: functional, cell-based; conditions: U-266, 72 h
[16] = tested on: G-361; assay: Cytotoxicity against human G-361 cells assessed as reduction in cell growth incubated for 72 hrs by Calcein AM assay; assay type: functional, cell-based; conditions: G-361, 72 h
[17] = tested on: MDA-MB-468; assay: Cytotoxicity against human MDA-MB-468 cells assessed as reduction in cell growth incubated for 72 hrs by Calcein AM assay; assay type: functional, cell-based; conditions: MDA-MB-468, 72 h
[18] = tested on: MCF7; assay: Cytotoxicity against human MCF7 cells assessed as reduction in cell growth incubated for 72 hrs by Calcein AM assay; assay type: functional, cell-based; conditions: MCF7, 72 h
[19] = Cytotoxicity against human L02 cells assessed as inhibition of cell viability incubated for 72 hrs by MTT assay; assay type: toxicity, cell-based
[20] = AUC in Wistar rat at 20 mg/kg,po and measured upto 24 hrs by LC/MS/MS analysis; assay type: ADME, organism-based; parameters: time < 24 hrs, dose 20 mg/kg, route po; conditions: in vivo
[21] = tested on: MDA-MB-453; assay: Antiproliferative activity against human MDA-MB-453 cells assessed as cell growth inhibition incubated for 72 hrs by MTT assay; assay type: functional
[22] = AUC in Balb/c mouse at 10 mg/kg,po and measured upto 24 hrs by LC/MS/MS analysis; assay type: ADME, organism-based; parameters: time < 24 hrs, dose 10 mg/kg, route po; conditions: in vivo
[23] = tested on: MV4-11; assay: Antiproliferative activity against human MV4-11 cells assessed as cell growth inhibition incubated for 72 hrs by resazurin assay; assay type: functional
[24] = tested on: LS174T; assay: Antitumor activity against human LS174T cells assessed as reduction in cell viability by MTT assay; assay type: functional, cell-based
[25] = tested on: Bel-7402; assay: Antitumor activity against human Bel-7402 cells assessed as reduction in cell viability by MTT assay; assay type: functional, cell-based
[26] = tested on: HeLa; assay: Antitumor activity against human HeLa cells assessed as reduction in cell viability by MTT assay; assay type: functional, cell-based
[27] = tested on: A549; assay: Antitumor activity against human A549 cells assessed as reduction in cell viability by MTT assay; assay type: functional, cell-based
[28] = biological target: Cyclin-dependent kinase 4 (Homo sapiens, UniProt P11802); assay: Inhibition of CDK4 (unknown origin) by kinase assay
[29] = tested on: A549; assay: Antiproliferative activity against human A549 cells assessed as reduction in cell viability incubated for 72 hrs by MTT assay; assay type: functional, cell-based; conditions: A549, 72 h
[30] = biological target: CDK2/Cyclin A2 (Homo sapiens, UniProt P24941); assay: Inhibition of CDK2/cyclin A2 (unknown origin) expressed in baculovirus expression system incubated for 1 hr using Ser/Thr12 Peptide as substrate in presence of ATP by Z-LYTE kinase assay
[31] = tested on: HCT-116; assay: Antiproliferative activity against human HCT-116 cells assessed as reduction in cell viability incubated for 72 hrs by MTT assay; assay type: functional, cell-based; conditions: HCT-116, 72 h
[32] = tested on: HL-60; assay: Antiproliferative activity against human HL-60 cells assessed as reduction in cell viability incubated for 72 hrs by MTT assay; assay type: functional, cell-based; conditions: HL-60, 72 h

Sequence of Cyclin-dependent kinase 9 (P50750 whole entry): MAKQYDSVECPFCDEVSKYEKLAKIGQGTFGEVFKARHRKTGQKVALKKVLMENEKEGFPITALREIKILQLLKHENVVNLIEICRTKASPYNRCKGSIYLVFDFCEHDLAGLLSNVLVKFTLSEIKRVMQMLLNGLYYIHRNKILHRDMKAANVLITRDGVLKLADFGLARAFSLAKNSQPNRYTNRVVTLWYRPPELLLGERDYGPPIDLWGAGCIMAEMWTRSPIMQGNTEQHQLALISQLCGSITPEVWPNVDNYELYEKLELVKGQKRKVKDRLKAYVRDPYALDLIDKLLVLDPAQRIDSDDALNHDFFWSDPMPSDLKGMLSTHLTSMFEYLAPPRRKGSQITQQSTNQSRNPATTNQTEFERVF
Sequence of Cyclin-dependent kinase 4 (P11802 whole entry): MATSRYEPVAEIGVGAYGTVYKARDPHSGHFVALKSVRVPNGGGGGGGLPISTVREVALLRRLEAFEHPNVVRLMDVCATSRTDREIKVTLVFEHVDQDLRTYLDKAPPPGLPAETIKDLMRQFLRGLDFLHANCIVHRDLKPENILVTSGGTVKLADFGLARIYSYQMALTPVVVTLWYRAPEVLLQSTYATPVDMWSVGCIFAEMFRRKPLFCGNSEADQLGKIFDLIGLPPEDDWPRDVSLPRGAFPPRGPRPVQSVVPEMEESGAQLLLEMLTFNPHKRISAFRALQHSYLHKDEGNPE
Sequence of Protein cereblon/Cyclin-dependent kinase 4 (P11802 whole entry): as above
Sequence of Protein cereblon/Cyclin-dependent kinase 4 (Q96SW2 whole entry): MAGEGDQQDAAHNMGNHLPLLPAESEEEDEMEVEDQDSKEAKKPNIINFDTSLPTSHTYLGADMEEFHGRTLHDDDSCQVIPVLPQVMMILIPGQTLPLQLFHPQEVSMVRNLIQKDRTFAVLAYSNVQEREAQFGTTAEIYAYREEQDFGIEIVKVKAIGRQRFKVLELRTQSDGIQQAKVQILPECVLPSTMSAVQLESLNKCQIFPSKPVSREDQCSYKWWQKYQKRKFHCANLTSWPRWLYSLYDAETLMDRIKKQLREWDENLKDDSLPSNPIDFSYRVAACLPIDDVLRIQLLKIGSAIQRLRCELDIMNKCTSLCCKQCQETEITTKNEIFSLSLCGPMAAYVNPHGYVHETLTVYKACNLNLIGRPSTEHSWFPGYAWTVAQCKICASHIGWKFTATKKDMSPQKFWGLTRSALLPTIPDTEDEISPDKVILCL
Sequence of Protein cereblon/Cyclin-dependent kinase 6 (Q00534 whole entry): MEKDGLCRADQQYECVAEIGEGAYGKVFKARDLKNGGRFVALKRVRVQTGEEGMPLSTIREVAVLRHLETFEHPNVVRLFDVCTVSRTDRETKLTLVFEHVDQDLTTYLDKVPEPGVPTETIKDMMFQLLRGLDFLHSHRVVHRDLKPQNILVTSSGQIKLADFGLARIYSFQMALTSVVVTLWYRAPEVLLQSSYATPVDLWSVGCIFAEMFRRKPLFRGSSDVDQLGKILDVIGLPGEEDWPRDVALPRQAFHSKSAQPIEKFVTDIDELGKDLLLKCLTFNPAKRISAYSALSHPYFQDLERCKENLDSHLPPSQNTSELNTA
Sequence of Protein cereblon/Cyclin-dependent kinase 6 (Q96SW2 whole entry): as the sequence (Q96SW2 whole entry) above

Compound: CC(=O)c1c(C)c2cnc(Nc3ccc(N4CCN(Cc5cn(CCCCCC(=O)Nc6cccc7c6C(=O)N(C6CCC(=O)NC6=O)C7=O)nn5)CC4)cn3)nc2n(C2CCCC2)c1=O (configuration not stated)
DC50 [1]: 0.02 µM | DC50 [2]: 0.02 µM

Compound: CC[C@H](CO)Nc1nc(NCc2ccccc2N)c2[nH]nc(C(C)C)c2n1
IC50 [8]: 5 µM | IC50 [9]: 5 µM | IC50 [10]: 5 µM | IC50 [11]: 5 µM | IC50 [12]: 5 µM | IC50 [13]: 5 µM | IC50 [14]: 5 µM | IC50 [15]: 5 µM | IC50 [16]: 5 µM | IC50 [17]: 5 µM | IC50 [18]: 5 µM

Compound: O=C1CCC(N2C(=O)c3cccc(NC(=O)CCCCCCCn4cc(COc5c(O)cc(O)c6c(=O)cc(-c7ccccc7)oc56)nn4)c3C2=O)C(=O)N1 (configuration not stated)
IC50 at 72 hrs [19]: > 100 µM

Compound: CNc1nc(C)c(-c2nc(Nc3ccc(N4CCC(N(C)C)CC4)cn3)ncc2F)s1
AUC at 24 h [20]: 4.4 µM·h | GI50 [21]: 0.325 µM | AUC at 24 h [22]: 4.3 µM·h | GI50 [23]: 0.107 µM

Compound: CN(Cc1ccccc1)C(=O)CCc1c[nH]c2ccccc12
IC50 [24]: 11 µM | IC50 [25]: 14 µM | IC50 [26]: 25 µM | IC50 [27]: 16 µM | IC50 [28]: 10 µM

Continued, in another order:

IC50 [6]: 1.8 µM
Compound: Nc1c([N+](=O)[O-])cnc(NC2CCCCC2)c1[N+](=O)[O-]
IC50 at 2 days [3]: 86.7 µM | IC50 [4]: 3.19 µM | IC50 [5]: 2.89 µM

IC50 [7]: 0.5 µM
Compound: O=C1N=NC(=O)/C(=C\Nc2ccc(-c3nc4ncccc4[nH]3)cc2)C(=O)N1

IC50 [29]: 3.85 µM | IC50 [30]: 0.021 µM | IC50 [31]: 1.56 µM | IC50 [32]: 3.71 µM
Compound: CCC(CO)Nc1nc(NCc2ccccn2)c2ncn(CC)c2c1[N+](=O)[O-] (configuration not stated)
